From patent publication US12576018B2, “Active agents for skin and hair care with sensory modifying properties” (SYMRISE AG, priority 2019, dated 2026)

Test system: skin
Experiment: Sensory assessment of 1 wt.-% 3-hydroxypropyl undecylenate in o/w emulsion versus placebo
Type: in vivo, human
Settings: 1 wt.-% in o/w emulsion vs placebo without active
Method: Heat phase A and C separately up to 80° C. Disperse phase B in phase A. Add phase C to phase AB and emulsify using a HomoRex stirrer (3 min, […]). Add phase D and neutralize. Allow to cool by using a vane stirrer (10 min at 150 rpm, then 10 min at 100 rpm). Pre-dissolve 3-hydroxypropyl undecylenate with pentylene glycol and propylene glycol (phase E) and add to the emulsion by using a vane stirrer (10 min, 100 rpm). Sensory Assessment: Test design (for two samples; presented in random order) 100 μl of sample was applied on the forearm. Sample was distributed with index and middle finger in rotary movements for 20 seconds. Then the second sample is applied on the other forearm and again distributed. After 3 minutes the skin feel is evaluated. Question to the panellists: Which formulation (A or B) leaves the skin more soft and moisturized on a scale from 0-4? (Soft/moisture: 0=not at all; 4=very strong)

## C=CCCCCCCCCC(=O)OCCCO [3-hydroxypropyl undecylenate]
  Soft and moisturized skin feel versus placebo (in words): more soft and moisturized skin feel
